US20230365592A1 (Agios Pharmaceuticals, Inc., priority 2022, published 2023)

molecular target: T1, human PAH with the R408W mutation (Homo sapiens, UniProt P00439, R408W); assay: Cell Based Phenylalanine Flux Assay; conditions: A375 cells expressing human PAH R408W; 24 hrs compound incubation; 13C-Tyrosine by LC-MS; average where tested multiple times; read-out: AC50;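 further: after compound treatment, cells received sepiapterin plus isotope-labelled Phenylalanine for 4 hours, then labelled Tyrosine in the medium was quantified, 10-point 2-fold dilution series run in duplicate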
T1 construct: expressed in transfected cells
T1 sequence (P00439 1-452 R408W): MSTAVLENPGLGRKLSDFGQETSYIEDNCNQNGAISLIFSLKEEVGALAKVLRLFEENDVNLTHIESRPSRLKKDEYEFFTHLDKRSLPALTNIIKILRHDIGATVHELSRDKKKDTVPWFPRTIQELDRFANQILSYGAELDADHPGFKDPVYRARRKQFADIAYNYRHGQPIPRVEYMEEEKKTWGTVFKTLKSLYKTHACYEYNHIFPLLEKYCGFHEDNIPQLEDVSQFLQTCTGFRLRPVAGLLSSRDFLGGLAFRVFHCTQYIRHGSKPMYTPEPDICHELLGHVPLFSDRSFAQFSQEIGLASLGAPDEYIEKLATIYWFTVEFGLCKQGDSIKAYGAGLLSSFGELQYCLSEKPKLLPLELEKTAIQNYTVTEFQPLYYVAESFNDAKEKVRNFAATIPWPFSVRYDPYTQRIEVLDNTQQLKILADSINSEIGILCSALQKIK

| Structure (SMILES) | AC50 |
| --- | --- |
| Cc1cccn2nc([C@@H]3c4nc[nH]c4CCN3c3nnc(C(C)(C)C)o3)cc12 [Example 1799, (S)-2-(tert-butyl)-5-(4-(4-methylpyrazolo[1,5-a]pyridin-2-yl)-6,7-dihydro-1H-imidazo[4,5-c]pyridin-5(4H)-yl)-1,3,4-oxadiazole] | 500 to 1000 nM |
| Cc1cccn2nc([C@H]3c4nc[nH]c4CCN3c3cnccn3)cc12 [Example 1804, (R)-4-(4-methylpyrazolo[1,5-a]pyridin-2-yl)-5-(pyrazin-2-yl)-4,5,6,7-tetrahydro-1H-imidazo[4,5-c]pyridine] | 1000 to 5000 nM |
| FC(F)(F)c1nnc(N2CCc3[nH]cnc3[C@H]2c2cc3ccccn3n2)o1 [Example 1807, (S)-2-(4-(pyrazolo[1,5-a]pyridin-2-yl)-6,7-dihydro-1H-imidazo[4,5-c]pyridin-5(4H)-yl)-5-(trifluoromethyl)-1,3,4-oxadiazole] | 500 to 1000 nM |
| Cc1cccn2nc([C@@H]3c4nc[nH]c4CCN3c3nnc(C(F)(F)F)o3)cc12 [Example 1809, (S)-2-(4-(4-methylpyrazolo[1,5-a]pyridin-2-yl)-6,7-dihydro-1H-imidazo[4,5-c]pyridin-5(4H)-yl)-5-(trifluoromethyl)-1,3,4-oxadiazole] | < 500 nM |
| FC(F)c1cccn2nc([C@H]3c4nc[nH]c4CCN3c3cnccn3)cc12 [Example 1816, (R)-4-(4-(difluoromethyl)pyrazolo[1,5-a]pyridin-2-yl)-5-(pyrazin-2-yl)-4,5,6,7-tetrahydro-1H-imidazo[4,5-c]pyridine] | > 5000 nM |
| FC(F)c1cccn2nc([C@@H]3c4nc[nH]c4CCN3c3cnccn3)cc12 [Example 1817, (S)-4-(4-(difluoromethyl)pyrazolo[1,5-a]pyridin-2-yl)-5-(pyrazin-2-yl)-4,5,6,7-tetrahydro-1H-imidazo[4,5-c]pyridine] | < 500 nM |
| FC(F)(F)c1cccn2nc([C@H]3c4nc[nH]c4CCN3c3cnccn3)cc12 [Example 1818, (R)-5-(pyrazin-2-yl)-4-(4-(trifluoromethyl)pyrazolo[1,5-a]pyridin-2-yl)-4,5,6,7-tetrahydro-1H-imidazo[4,5-c]pyridine] | > 5000 nM |
| FC(F)(F)c1cccn2nc([C@@H]3c4nc[nH]c4CCN3c3cnccn3)cc12 [Example 1819, (S)-5-(pyrazin-2-yl)-4-(4-(trifluoromethyl)pyrazolo[1,5-a]pyridin-2-yl)-4,5,6,7-tetrahydro-1H-imidazo[4,5-c]pyridine] | < 500 nM |
| FC(F)(F)c1nnc(N2CCc3[nH]cnc3[C@@H]2c2cc3c(C(F)(F)F)cccn3n2)o1 [Example 1820, (R)-2-(trifluoromethyl)-5-(4-(4-(trifluoromethyl)pyrazolo[1,5-a]pyridin-2-yl)-6,7-dihydro-1H-imidazo[4,5-c]pyridin-5(4H)-yl)-1,3,4-oxadiazole] | > 5000 nM |
| FC(F)(F)c1nnc(N2CCc3[nH]cnc3[C@H]2c2cc3c(C(F)(F)F)cccn3n2)o1 [Example 1821, (S)-2-(trifluoromethyl)-5-(4-(4-(trifluoromethyl)pyrazolo[1,5-a]pyridin-2-yl)-6,7-dihydro-1H-imidazo[4,5-c]pyridin-5(4H)-yl)-1,3,4-oxadiazole] | < 500 nM |
| CC(C)(C)c1nnc(N2CCc3[nH]cnc3[C@H]2c2cc3c(C(F)F)cccn3n2)o1 [Example 1825, (S)-2-(tert-butyl)-5-(4-(4-(difluoromethyl)pyrazolo[1,5-a]pyridin-2-yl)-6,7-dihydro-1H-imidazo[4,5-c]pyridin-5(4H)-yl)-1,3,4-oxadiazole] | 500 to 1000 nM |

Now from value to compound:

| AC50 | Structure (SMILES) |
| --- | --- |
| < 500 nM | FC(F)(F)c1cnc(N2CCc3[nH]cnc3[C@H]2c2cc3cccc(Cl)n3n2)nc1 [Example 1800, (S)-4-(7-chloropyrazolo[1,5-a]pyridin-2-yl)-5-(5-(trifluoromethyl)pyrimidin-2-yl)-4,5,6,7-tetrahydro-1H-imidazo[4,5-c]pyridine] |
| > 5000 nM | Cc1cccc2cc([C@H]3c4nc[nH]c4CCN3c3ncc(C(F)(F)F)cn3)nn12 [Example 1803, (R)-4-(7-methylpyrazolo[1,5-a]pyridin-2-yl)-5-(5-(trifluoromethyl)pyrimidin-2-yl)-4,5,6,7-tetrahydro-1H-imidazo[4,5-c]pyridine] |
| < 500 nM | Cc1cccn2nc([C@@H]3c4nc[nH]c4CCN3c3cnccn3)cc12 [Example 1805, (S)-4-(4-methylpyrazolo[1,5-a]pyridin-2-yl)-5-(pyrazin-2-yl)-4,5,6,7-tetrahydro-1H-imidazo[4,5-c]pyridine] |
| 500 to 1000 nM | FC(F)(F)c1cnc(N2CCc3[nH]cnc3[C@H]2c2cc3cccc(C(F)(F)F)n3n2)nc1 [Example 1810, (S)-4-(7-(trifluoromethyl)pyrazolo[1,5-a]pyridin-2-yl)-5-(5-(trifluoromethyl)pyrimidin-2-yl)-4,5,6,7-tetrahydro-1H-imidazo[4,5-c]pyridine] |
| 500 to 1000 nM | FC(F)c1cccc2cc([C@@H]3c4nc[nH]c4CCN3c3ncc(C(F)(F)F)cn3)nn12 [Example 1812, (S)-4-(7-(difluoromethyl)pyrazolo[1,5-a]pyridin-2-yl)-5-(5-(trifluoromethyl)pyrimidin-2-yl)-4,5,6,7-tetrahydro-1H-imidazo[4,5-c]pyridine] |
| < 500 nM | c1ccc(N2CCc3[nH]cnc3[C@H]2c2cc3ccccn3n2)nc1 [Example 1814, (S)-4-(pyrazolo[1,5-a]pyridin-2-yl)-5-(pyridin-2-yl)-4,5,6,7-tetrahydro-1H-imidazo[4,5-c]pyridine] |
| > 5000 nM | c1ccc(N2CCc3[nH]cnc3[C@@H]2c2cc3ccccn3n2)nc1 [Example 1815, (R)-4-(pyrazolo[1,5-a]pyridin-2-yl)-5-(pyridin-2-yl)-4,5,6,7-tetrahydro-1H-imidazo[4,5-c]pyridine] |

same assay, conditions: A375 cells expressing human R408W PAH; 24 hrs compound incubation; 13C-Tyrosine by LC-MS; average where tested multiple times; read-out: AC50

| AC50 | Structure (SMILES) |
| --- | --- |
| 1000 to 5000 nM | Cc1ccc2c(C(=O)N3CCc4[nH]cnc4[C@@H]3c3cc4cccc(F)n4n3)cnn2c1 [Example 1787, (R)-(4-(7-fluoropyrazolo[1,5-a]pyridin-2-yl)-6,7-dihydro-1H-imidazo[4,5-c]pyridin-5(4H)-yl)(6-methylpyrazolo[1,5-a]pyridin-3-yl)methanone] |
| 500 to 1000 nM | COc1cccn2nc([C@@H]3c4nc[nH]c4CCN3C(=O)c3cnn4cc(C5CC5)ccc34)cc12 [Example 1788, (S)-(6-cyclopropylpyrazolo[1,5-a]pyridin-3-yl)(4-(4-methoxypyrazolo[1,5-a]pyridin-2-yl)-6,7-dihydro-1H-imidazo[4,5-c]pyridin-5(4H)-yl)methanone] |
| > 5000 nM | COc1cccn2nc([C@H]3c4nc[nH]c4CCN3C(=O)c3cnn4cc(C5CC5)ccc34)cc12 [Example 1789, (R)-(6-cyclopropylpyrazolo[1,5-a]pyridin-3-yl)(4-(4-methoxypyrazolo[1,5-a]pyridin-2-yl)-6,7-dihydro-1H-imidazo[4,5-c]pyridin-5(4H)-yl)methanone] |
| 500 to 1000 nM | O=C(c1cnn2cc(C3CC3)ccc12)N1CCc2[nH]cnc2[C@H]1c1cc2cccc(F)n2n1 [Example 1790, (S)-(6-cyclopropylpyrazolo[1,5-a]pyridin-3-yl)(4-(7-fluoropyrazolo[1,5-a]pyridin-2-yl)-6,7-dihydro-1H-imidazo[4,5-c]pyridin-5(4H)-yl)methanone] |
| > 5000 nM | O=C(c1cnn2cc(C3CC3)ccc12)N1CCc2[nH]cnc2[C@@H]1c1cc2cccc(F)n2n1 [Example 1791, (R)-(6-cyclopropylpyrazolo[1,5-a]pyridin-3-yl)(4-(7-fluoropyrazolo[1,5-a]pyridin-2-yl)-6,7-dihydro-1H-imidazo[4,5-c]pyridin-5(4H)-yl)methanone] |
| < 500 nM | CN(C)c1ccc2c(C(=O)N3CCc4[nH]cnc4[C@H]3c3cc4c(Cl)cccn4n3)cnn2c1 [Example 1792, (S)-(4-(4-chloropyrazolo[1,5-a]pyridin-2-yl)-6,7-dihydro-1H-imidazo[4,5-c]pyridin-5(4H)-yl)(6-(dimethylamino)pyrazolo[1,5-a]pyridin-3-yl)methanone] |
| 500 to 1000 nM | Cc1cccc2cc([C@@H]3c4nc[nH]c4CCN3C(=O)c3cnn4cc(N(C)C)ccc34)nn12 [Example 1794, (S)-(6-(dimethylamino)pyrazolo[1,5-a]pyridin-3-yl)(4-(7-methylpyrazolo[1,5-a]pyridin-2-yl)-6,7-dihydro-1H-imidazo[4,5-c]pyridin-5(4H)-yl)methanone] |
| > 5000 nM | Cc1cccc2cc([C@H]3c4nc[nH]c4CCN3C(=O)c3cnn4cc(N(C)C)ccc34)nn12 [Example 1795, (R)-(6-(dimethylamino)pyrazolo[1,5-a]pyridin-3-yl)(4-(7-methylpyrazolo[1,5-a]pyridin-2-yl)-6,7-dihydro-1H-imidazo[4,5-c]pyridin-5(4H)-yl)methanone] |
| 500 to 1000 nM | COCCc1ccc2c(C(=O)N3CCc4[nH]cnc4[C@H]3c3cc4c(F)cccn4n3)cnn2c1 [Example 1796, (S)-(4-(4-fluoropyrazolo[1,5-a]pyridin-2-yl)-6,7-dihydro-1H-imidazo[4,5-c]pyridin-5(4H)-yl)(6-(2-methoxyethyl)pyrazolo[1,5-a]pyridin-3-yl)methanone] |
| > 5000 nM | Cc1cccn2nc([C@H]3c4nc[nH]c4CCN3c3nnc(C(C)(C)C)o3)cc12 [Example 1798, (R)-2-(tert-butyl)-5-(4-(4-methylpyrazolo[1,5-a]pyridin-2-yl)-6,7-dihydro-1H-imidazo[4,5-c]pyridin-5(4H)-yl)-1,3,4-oxadiazole] |
